Among the data in BindingDB's records for doi:10.1016/j.ejmech.2014.09.012 (Shandong University, 2014) are IC50 values, retold here.

The test can be described thus: Inhibition of HIV-1 isolate YTA48P HIV-1 gp120.

The term IC50 denotes the concentration that inhibits the measured activity by half. The low end stands for greater potency, the high end for weaker potency. Consider `CC1(C)CC(NC(=O)C(=O)Nc2ccc(Cl)cc2)CC(C)(C)N1` [N-(4-chlorophenyl)-N'-(2,2,6,6-tetramethylpiperidin-4-yl)-oxalamide], for which the IC50 came out at 610 nM.
